One assay relates to Salmonella choleraesuis. Nature of the assay: MBEC device biofilm photodynamic killing (Example 1). The format is cell-based. Further details: key to Killing of Salmonella cholerasuis biofilm (eradication or growth): “−” = biofilm eradication at the mentioned conditions (concentration, exposure time and Light source); “+” = biofilm growth. The note with it: for Killing of Salmonella cholerasuis biofilm (eradication or growth): 16 Hours exposure. An excerpt:
(§1) Test microorganisms included Salmonella choleraesuis, Staphylococcus aureus, foodborne pathogens of humans. Test Compounds included Methylene blue, Hemoglobin (blood product), Hemin (blood product), Protoporphyrin (blood product), Annatto Extract (15% Norbixin), beet juice, Canthaxanthin (10%), Beta-carotene (1%), Purple carmine 50%, Carmine lake 60%, Black Carrot extract, Tomato lycopene (5%), sodium copper chlorophyllin, grape skin extract, paprika oleoresin, riboflavin, saffron, titanium dioxide, FD&C blue No1., turmeric oleoresin, FD&C blue No. 2, FD&C Green No. 3, FD&C Red No. 2 (Amaranth), FD&C Red No. 40, FD&C Yellow No. 5, and FD&C Yellow No. 6. Compounds were prepared as 1%, 0.1%, 0.01%, by weight, dissolved in water.
(§2) The light source was a full spectrum fluorescent light or LED light and the contact time was 1 and 16 hours. The study temperature was 37° C.
(§3) Approximately 10^6 organisms in 150 uL Cation Adjusted Mueller Hinton Broth (CAMHB) were placed in each of the wells of a 96 peg MBEC device. The lid of the 96 peg MBEC device was placed on the bottom plate containing organism. The device was placed on a shaker, set to 110 rpm, and incubated at 37° C. for 24 hours to produce biofilms.
(§4) The challenge plates were set up using a sterile 96-well microtitre plate using aseptic techniques in the following manner (one organism per plate, per light exposure time, per light source). Test solutions (200 uL) were placed into each well. The lid was transferred to the challenge plate and exposed to the various light sources for the prescribed exposure times (16 hours). Following the treatment, the pegs were transferred to the recovery media (“recovery plate”) then wrapped in tin foil and incubated at 37° C. for 18 to 24 hours. The recovery plate(s) was wrapped in tin foil, incubated at 37° C. for 24 hours and read visually and by a plate reader, set to an optical density measurement of 630 nm, to determine Minimum Biofilm Eradication Concentration (MBEC) by looking at growth or no growth.

The test system of a further assay is Staphylococcus aureus. The description is as above. Also on record: key to Killing of Staph aureus biofilm (eradication or growth): “−” = biofilm eradication at the mentioned conditions (concentration, exposure time and Light source); “+” = biofilm growth. The conditions noted are these: 16 Hours exposure. The format is cell-based.
Text: as §1, §2, §3, §4

Each structure is given as a SMILES string.

`CCN(Cc1cccc(S(=O)(=O)[O-])c1)c1ccc(C(=C2C=CC(=[N+](CC)Cc3cccc(S(=O)(=O)[O-])c3)C=C2)c2ccccc2S(=O)(=O)[O-])cc1.[Na+].[Na+]` [Blue No. 1, FD&C blue No1.]: the “Killing of Salmonella cholerasuis biofilm (eradication or growth)” value in the assay on Salmonella choleraesuis (Fluorescent Light, 0.01%) is recorded as “−”; in the assay on Salmonella choleraesuis (Fluorescent Light, 0.1%), “−”; with Salmonella choleraesuis (Fluorescent Light, 1%) it was “−”; in the assay with Salmonella choleraesuis (LED Light, 0.01%), “+”; with Salmonella choleraesuis (LED Light, 0.1%) it was “+”; with Salmonella choleraesuis (LED Light, 1%) it was “+”. In addition, the “effective as photodynamic agent in killing biofilm organisms” value in the assay with Salmonella choleraesuis (Salmonella choleraesuis and Staphylococcus aureus biofilm, summary of Table 1) is “Effective”. Besides, the “Killing of Staph aureus biofilm (eradication or growth)” value (“Killing of Staph aureus biofilm” for short) in the assay on Staphylococcus aureus (Fluorescent Light, 0.01%) was “+”; in the assay on Staphylococcus aureus (Fluorescent Light, 0.1%) it was “+”; with Staphylococcus aureus (Fluorescent Light, 1%), “+”; in the assay on Staphylococcus aureus (LED Light, 0.01%) it was “+”; in the assay with Staphylococcus aureus (LED Light, 0.1%), “+”; with Staphylococcus aureus (LED Light, 1%) it was “+”.

As for `O=C1/C(=C2\Nc3ccc(S(=O)(=O)[O-])cc3C2=O)Nc2ccc(S(=O)(=O)[O-])cc21.[Na+].[Na+]` [Blue No. 2, FD&C blue No. 2], the “Killing of Salmonella cholerasuis biofilm (eradication or growth)” value in the assay on Salmonella choleraesuis (Fluorescent Light, 0.01%) was “+”; in the assay with Salmonella choleraesuis (Fluorescent Light, 0.1%) it was “+”; in the assay on Salmonella choleraesuis (Fluorescent Light, 1%), “+”; with Salmonella choleraesuis (LED Light, 0.01%) it was “+”; with Salmonella choleraesuis (LED Light, 0.1%), “+”; with Salmonella choleraesuis (LED Light, 1%), “+”. The “Killing of Staph aureus biofilm” value in the assay on Staphylococcus aureus (Fluorescent Light, 0.01%) is reported as “+”; in the assay with Staphylococcus aureus (Fluorescent Light, 0.1%), “+”; in the assay with Staphylococcus aureus (Fluorescent Light, 1%), “+”; in the assay with Staphylococcus aureus (LED Light, 0.01%), “+”; with Staphylococcus aureus (LED Light, 0.1%), “+”; in the assay with Staphylococcus aureus (LED Light, 1%) it was “+”.

In the case of `CC1=C(/C=C/C(C)=C/C=C/C(C)=C/C=C/C=C(C)/C=C/C=C(C)/C=C/C2=C(C)C(=O)CCC2(C)C)C(C)(C)CCC1=O` [Canthaxanthin], the “Killing of Salmonella cholerasuis biofilm (eradication or growth)” value in the assay on Salmonella choleraesuis (Fluorescent Light, 0.01%) is reported as “+”; with Salmonella choleraesuis (Fluorescent Light, 0.1%) it was “+”; with Salmonella choleraesuis (Fluorescent Light, 1%) it was “+”; with Salmonella choleraesuis (LED Light, 0.01%), “+”; in the assay on Salmonella choleraesuis (LED Light, 0.1%), “+”; in the assay on Salmonella choleraesuis (LED Light, 1%), “+”. Also, the “Killing of Staph aureus biofilm” value in the assay on Staphylococcus aureus (Fluorescent Light, 0.01%) is reported as “+”; in the assay with Staphylococcus aureus (Fluorescent Light, 0.1%), “+”; in the assay with Staphylococcus aureus (Fluorescent Light, 1%) it was “+”; with Staphylococcus aureus (LED Light, 0.01%), “+”; in the assay on Staphylococcus aureus (LED Light, 0.1%) it was “+”; in the assay on Staphylococcus aureus (LED Light, 1%), “+”.

Turning to `CCN(Cc1cccc(S(=O)(=O)[O-])c1)c1ccc(C(=C2C=CC(=[N+](CC)Cc3cccc(S(=O)(=O)[O-])c3)C=C2)c2ccc(O)cc2S(=O)(=O)[O-])cc1.[Na+].[Na+]` [Green No. 3, FD&C Green No. 3], the “Killing of Salmonella cholerasuis biofilm (eradication or growth)” value with Salmonella choleraesuis (Fluorescent Light, 0.01%) is recorded as “+”; with Salmonella choleraesuis (Fluorescent Light, 0.1%) it was “+”; in the assay on Salmonella choleraesuis (Fluorescent Light, 1%), “+”; in the assay on Salmonella choleraesuis (LED Light, 0.01%), “+”; in the assay with Salmonella choleraesuis (LED Light, 0.1%) it was “+”; in the assay with Salmonella choleraesuis (LED Light, 1%), “+”. The “Killing of Staph aureus biofilm” value with Staphylococcus aureus (Fluorescent Light, 0.01%) was “+”; with Staphylococcus aureus (Fluorescent Light, 0.1%), “+”; with Staphylococcus aureus (Fluorescent Light, 1%), “+”; in the assay with Staphylococcus aureus (LED Light, 0.01%), “+”; in the assay with Staphylococcus aureus (LED Light, 0.1%) it was “+”; in the assay with Staphylococcus aureus (LED Light, 1%), “+”.

As to `O=S(=O)([O-])c1ccc2c(N=Nc3ccc(S(=O)(=O)[O-])c4ccccc34)c(O)c(S(=O)(=O)[O-])cc2c1.[Na+].[Na+].[Na+]` [Red No. 2, FD&C Red No. 2 (Amaranth)], the “Killing of Salmonella cholerasuis biofilm (eradication or growth)” value in the assay on Salmonella choleraesuis (Fluorescent Light, 0.01%) is “+”; in the assay with Salmonella choleraesuis (Fluorescent Light, 0.1%), “+”; in the assay with Salmonella choleraesuis (Fluorescent Light, 1%), “+”; in the assay on Salmonella choleraesuis (LED Light, 0.01%), “+”; with Salmonella choleraesuis (LED Light, 0.1%) it was “+”; in the assay with Salmonella choleraesuis (LED Light, 1%) it was “+”. The “Killing of Staph aureus biofilm” value in the assay on Staphylococcus aureus (Fluorescent Light, 0.01%) is on record as “+”; in the assay with Staphylococcus aureus (Fluorescent Light, 0.1%) it was “+”; with Staphylococcus aureus (Fluorescent Light, 1%), “+”; in the assay with Staphylococcus aureus (LED Light, 0.01%), “+”; with Staphylococcus aureus (LED Light, 0.1%), “+”; in the assay with Staphylococcus aureus (LED Light, 1%) it was “+”.

Consider `COc1cc(S(=O)(=O)[O-])c(C)cc1N=Nc1c(O)ccc2cc(S(=O)(=O)[O-])ccc12.[Na+].[Na+]` [Red No. 40, FD&C Red No. 40], for which the “Killing of Salmonella cholerasuis biofilm (eradication or growth)” value is recorded as “+” in the assay with Salmonella choleraesuis (Fluorescent Light, 0.01%); “+” in the assay on Salmonella choleraesuis (Fluorescent Light, 0.1%); “+” in the assay on Salmonella choleraesuis (Fluorescent Light, 1%); “+” in the assay on Salmonella choleraesuis (LED Light, 0.01%); “+” with Salmonella choleraesuis (LED Light, 0.1%); “+” in the assay with Salmonella choleraesuis (LED Light, 1%). Besides, the “Killing of Staph aureus biofilm” value is on record as “+” with Staphylococcus aureus (Fluorescent Light, 0.01%); “+” with Staphylococcus aureus (Fluorescent Light, 0.1%); “+” in the assay on Staphylococcus aureus (Fluorescent Light, 1%); “+” with Staphylococcus aureus (LED Light, 0.01%); “+” with Staphylococcus aureus (LED Light, 0.1%); “+” in the assay on Staphylococcus aureus (LED Light, 1%).

With `Cc1cc2nc3c(=O)[nH]c(=O)nc-3n(C[C@H](O)[C@H](O)[C@H](O)CO)c2cc1C` [Riboflavin, riboflavin], the “Killing of Salmonella cholerasuis biofilm (eradication or growth)” value with Salmonella choleraesuis (Fluorescent Light, 0.01%) is given as “+”; in the assay on Salmonella choleraesuis (Fluorescent Light, 0.1%), “+”; with Salmonella choleraesuis (Fluorescent Light, 1%), “+”; in the assay on Salmonella choleraesuis (LED Light, 0.01%) it was “+”; in the assay with Salmonella choleraesuis (LED Light, 0.1%), “+”; in the assay with Salmonella choleraesuis (LED Light, 1%), “+”. Moreover, the “Killing of Staph aureus biofilm” value in the assay on Staphylococcus aureus (Fluorescent Light, 0.01%) is “+”; with Staphylococcus aureus (Fluorescent Light, 0.1%), “+”; with Staphylococcus aureus (Fluorescent Light, 1%), “+”; in the assay with Staphylococcus aureus (LED Light, 0.01%) it was “+”; in the assay with Staphylococcus aureus (LED Light, 0.1%), “+”; in the assay with Staphylococcus aureus (LED Light, 1%), “+”.

The values are drawn from patent US20100266716A1, “Natural Photodynamic Agents and their use” (priority 2007, published 2010).
